Source: US20260256929A1, “PROTEASE/ENZYME CLEAVABLE LINKER-PAYLOADS AND PROTEIN CONJUGATES” (priority 2022, published 2026)

Assays:
Format in all cases: cell-based
[1] = test system: panel of breast cancer and lung cancer cell lines; test: Free drug cell killing activity across the whole panel; settings: all the cell lines tested (Table 2), 120 hours; read-out: EC50 values ranging over all the cell lines tested
Experimental: (§1) The in vitro cell killing activity of exatecan, gly-exatecan, and hemiasterlin were evaluated in a panel of breast cancer and lung cancer cell lines.
MDA-MB-361, SKBR3, BT20, HCC38, HCC1143, HCC1937, JIMT1, MCF-7, A549, NCI-H441, NCI-H520, NCI-H1703, NCI-H1975, NCI-H2110, NCI-H226, NCI-H292, NCI-H358 cells were purchased from ATCC (American Type Culture Collection, Manassas, VA, USA). All the cell lines were maintained in DMEM/F12 (1:1), high glucose (Corning, Corning, NY) supplemented with 10% heat-inactivated fetal bovine serum (Thermo Scientific, Grand Island, NY), 2 mM glutamax (Thermo Scientific, Grand Island, NY), and 1× Penicillin/Streptomycin (Corning, Corning, NY). Cytotoxicity effect of the Exatecan warhead was measured with a cell proliferation assay. Cells were seeded in a 384-well flat bottom white polystyrene plate at 625 cells/25 uL the day before the actual assay starts. Exatecan was formulated at 2× starting concentration in cell culture medium, serial diluted (1:3) under sterile conditions and added onto cells in triplicates. Plates were cultured at 37° C. in a CO2 incubator for 120 hours. […] Relative luminescence was measured on an ENVISION® plate reader (Perkin-Elmer; Waltham, MA). Relative luminescence readings were converted to % viability using untreated cells as controls. […]

[2] = test system: MDA-MB-231; test: Free drug cell killing activity (cell proliferation assay, Cell Titer-Glo); settings: MDA-MB-231, 120 hours
[3] = test system: NCI-H2343; test: as above; settings: NCI-H2343, 120 hours
[4] = test system: JIMT1; test: as above; settings: JIMT1, 120 hours
Experimental: as §1
(§2) MDA-MB-361, SKBR3, BT20, HCC38, HCC1143, HCC1937, JIMT1, MCF-7, A549, NCI-H441, NCI-H520, NCI-H1703, NCI-H1975, NCI-H2110, NCI-H226, NCI-H292, NCI-H358 cells were purchased from ATCC (American Type Culture Collection, Manassas, VA, USA). All the cell lines were maintained in DMEM/F12 (1:1), high glucose (Corning, Corning, NY) supplemented with 10% heat-inactivated fetal bovine serum (Thermo Scientific, Grand Island, NY), 2 mM glutamax (Thermo Scientific, Grand Island, NY), and 1× Penicillin/Streptomycin (Corning, Corning, NY). Cytotoxicity effect of the Exatecan warhead was measured with a cell proliferation assay. Cells were seeded in a 384-well flat bottom white polystyrene plate at 625 cells/25 uL the day before the actual assay starts. Exatecan was formulated at 2× starting concentration in cell culture medium, serial diluted (1:3) under sterile conditions and added onto cells in triplicates. Plates were cultured at 37° C. in a CO2 incubator for 120 hours. For cell viability measurement, 30 microliter of Cell Titer-Glo® reagent (Promega Corp, Madison, WI) was added into each well, and plates processed as per product instructions. Relative luminescence was measured on an ENVISION® plate reader (Perkin-Elmer; Waltham, MA). Relative luminescence readings were converted to % viability using untreated cells as controls. Data was fitted with non-linear regression analysis, using log (inhibitor) vs. response, variable slope, 4-parameter fit equation using GraphPad Prism.

[5] = test system: NCI-H1703; test: as above; settings: NCI-H1703, 120 hours
Experimental: as §1, §2

[6] = test system: SKBR3; test: as above; settings: SKBR3, 120 hours
Experimental: as §1, §2

[7] = test system: NCI-H441; test: as above; settings: NCI-H441, 120 hours
Experimental: as §1, §2

[8] = test system: MCF-7; test: as above; settings: MCF-7, 120 hours
Experimental: as §1, §2

[9] = test system: BT20; test: as above; settings: BT20, 120 hours
Experimental: as §1, §2

[10] = test system: NCI-H2110; test: as above; settings: NCI-H2110, 120 hours
Experimental: as §1, §2

[11] = test system: NCI-H226; test: as above; settings: NCI-H226, 120 hours
Experimental: as §1, §2

[12] = test system: NCI-H520; test: as above; settings: NCI-H520, 120 hours
Experimental: as §1, §2

[13] = test system: HCC1937; test: as above; settings: HCC1937, 120 hours
Experimental: as §1, §2

[14] = test system: NCI-H1975; test: as above; settings: NCI-H1975, 120 hours
Experimental: as §1, §2

[15] = test system: NCI-H292; test: as above; settings: NCI-H292, 120 hours
Experimental: as §1, §2

[16] = test system: A549; test: as above; settings: A549, 120 hours
Experimental: as §1, §2

[17] = test system: NCI-H358; test: as above; settings: NCI-H358, 120 hours
Experimental: as §1, §2

[18] = test system: HCC38; test: as above; settings: HCC38, 120 hours
Experimental: as §1, §2

[19] = test system: HCC1143; test: as above; settings: HCC1143, 120 hours
Experimental: as §1, §2

[20] = test system: MDA-MB-361; test: as above; settings: MDA-MB-361, 120 hours
Experimental: as §1, §2

[21] = test system: MDA-MB-468; test: as above; settings: MDA-MB-468, 120 hours

CC[C@@]1(O)C(=O)OCc2c1cc1n(c2=O)Cc2c-1nc1cc(F)c(C)c3c1c2[C@@H](NC(=O)CN)CC3 [Gly-exatecan, gly-exatecan]
EC50 [1]: 3.8 to 44 nM | EC50 ([2]; Homo sapiens, read-out: EC50): 3.8 nM | Span (%) [2]: 60% | Span (%) [3]: 55% | EC50 ([3]; read-out: EC50): 30 nM | EC50 ([4]; Homo sapiens, JIMT-1, read-out: EC50): 15 nM | Span (%) [4]: 70% | EC50 ([5]; Homo sapiens, read-out: EC50): 25 nM | Span (%) [5]: 91% | EC50 ([6]; Homo sapiens, SK-BR-3, read-out: EC50): 4.2 nM | Span (%) [6]: 95% | EC50 ([7]; Homo sapiens, read-out: EC50): 5.1 nM | Span (%) [7]: 90% | EC50 ([8]; Homo sapiens, MCF7, read-out: EC50): 8.8 nM | Span (%) [8]: 75% | Span (%) [9]: 92% | EC50 ([9]; Homo sapiens, BT-20, read-out: EC50): 21 nM | Span (%) [10]: 89% | EC50 ([10]; read-out: EC50): 9.2 nM | EC50 ([11]; Homo sapiens, read-out: EC50): 23 nM | Span (%) [11]: 99% | EC50 ([12]; Homo sapiens): 11 nM | Span (%) [12]: 80% | Span (%) [13]: 87% | EC50 ([13]; Homo sapiens, read-out: EC50): 35 nM | EC50 ([14]; Homo sapiens, read-out: EC50): 43 nM | Span (%) [14]: 84% | EC50 ([15]; Homo sapiens, read-out: EC50): 4 nM | Span (%) [15]: 94% | Span (%) [16]: 90% | EC50 ([16]; Homo sapiens, read-out: EC50): 44 nM | EC50 ([17]; Homo sapiens, read-out: EC50): 7.5 nM | Span (%) [17]: 95% | Span (%) [18]: 93% | EC50 ([18]; Homo sapiens, read-out: EC50): 6.1 nM | Span (%) [19]: 76% | EC50 ([19]; Homo sapiens, read-out: EC50): 14 nM | EC50 ([20]; Homo sapiens, read-out: EC50): 4.5 nM | Span (%) [20]: 98% | EC50 ([21]; Homo sapiens, read-out: EC50): 5.3 nM | Span (%) [21]: 91%
